According to PubChem BioAssay AID1259408 (Genetic Toxicology Data Bank (GENE-TOX), 2018):
Calls of active or inactive are those of the source. No rule for the calls is given here.

Tested on: GENE-TOX genotoxicity assays, various organisms and cells
Experiment: GENE-TOX mutagenicity studies
Conditions: for call: Assay Type: In vivo carcinogenicity studies
[1] = Species/Cell Type: Drosophila melanogaster, Assay Type: Sex-linked recessive lethal gene mutation, Assay Code: SRLT, Evaluation Type: Evaluation A (Pre-1980)
[2] = Species/Cell Type: Human, Assay Type: Sister-chromatid exchange (SCE) in vitro, Assay Code: SC1+D, Dose Response: With dose response, Evaluation Type: Evaluation B (Post-1980)
[3] = Species/Cell Type: Salmonella typhimurium (one or more of the five standard strains: TA98, TA100, TA1535, TA1537, and TA1538), Assay Type: Histidine reverse gene mutation, Ames assay, Assay Code: SALT, Evaluation Type: Evaluation A (Pre-1980)
[4] = Species/Cell Type: Salmonella typhimurium (one or more of the five standard strains: TA98, TA100, TA1535, TA1537, and TA1538), Assay Type: Histidine reverse gene mutation, Ames assay, Assay Code: SAL+, Evaluation Type: Evaluation A (Pre-1980)
[5] = Species/Cell Type: Syrian hamster embryo (SA7/SHE) cells, Assay Type: Cell transformation, viral enhanced, Assay Code: CT7+, Evaluation Type: Evaluation A (Pre-1980)
[6] = Species/Cell Type: Salmonella typhimurium (one or more of the five standard strains: TA98, TA100, TA1535, TA1537, and TA1538), Assay Type: Histidine reverse gene mutation, Ames assay, Assay Code: SAL+*, Activation: With metabolic activation, Evaluation Type: Evaluation A (Pre-1980)
[7] = Species/Cell Type: Chinese hamster lung (V79) cells, Assay Type: Forward gene mutation at the HPRT or ouabain locus, Assay Code: V79+, Evaluation Type: Evaluation A (Pre-1980)
[8] = Species/Cell Type: Nonhuman, Assay Type: Sister-chromatid exchange (SCE) in vitro, Assay Code: SC2+D, Dose Response: With dose response, Evaluation Type: Evaluation B (Post-1980)
[9] = Species/Cell Type: Nonhuman, Assay Code: CCG+, Evaluation Type: Evaluation A (Pre-1980)
[10] = Species/Cell Type: Drosophila melanogaster, Assay Type: Sex-linked recessive lethal gene mutation, Assay Code: SRL+, Evaluation Type: Evaluation A (Pre-1980)

SMILES: CCOP(=S)(OCC)Oc1nc(Cl)c(Cl)cc1Cl
- mutagenic call [1]: no conclusion
- mutagenic call (Species/Cell Type: Escherichia coli polA (W3119 vs P3478), Assay Type: Rec-assay, DNA effects (bacterial DNA repair), Assay Code: RE1+, Evaluation Type: Evaluation A (Pre-1980)): active; positive
- mutagenic call (Species/Cell Type: Human diploid fibroblasts, Assay Type: Unscheduled DNA synthesis (UDS) in vitro, DNA effects, Assay Code: UDH-, Evaluation Type: Evaluation A (Pre-1980)): inactive; negative
- mutagenic call [2]: active; positive
- mutagenic call (Species/Cell Type: Nonhuman, Assay Type: Sister-chromatid exchange (SCE) in vitro, Assay Code: SC2T, Evaluation Type: Evaluation B (Post-1980)): no conclusion
- mutagenic call (Species/Cell Type: Nonhuman, Assay Type: Sister-chromatid exchange (SCE) in vivo, Assay Code: SC3-, Evaluation Type: Evaluation B (Post-1980)): inactive; negative
- mutagenic call (Species/Cell Type: Saccharomyces cerevisiae, Assay Type: Mitotic recombination or gene conversion, Assay Code: YEH-, Evaluation Type: Evaluation A (Pre-1980)): inactive; negative
- mutagenic call [3]: no conclusion

SMILES: CCCCCC(=O)c1c(O)cc2c(c1O)C(=O)c1c(O)cc(O)cc1C2=O
- mutagenic call [3]: no conclusion

SMILES: O=C(CNC(=O)c1ccccc1)NO
- mutagenic call [4]: active; positive

SMILES: [NH4+].[O-2].[O-2].[O-2].[O-2].[O-2].[Sb+3].[W]
- mutagenic call [5]: active; positive

SMILES: CC1=C(C(C)O)c2cc3nc(cc4[nH]c(cc5[nH]c(cc1n2)c(C)c5CCC(=O)O)c(CCC(=O)O)c4C)C(C(C)O)=C3C (stereo not given)
- mutagenic call (Species/Cell Type: Human, Assay Type: Sister-chromatid exchange (SCE) in vitro, Assay Code: SC1T, Evaluation Type: Evaluation B (Post-1980)): no conclusion

SMILES: COc1ccc2ccc(=O)oc2c1
- mutagenic call (Species/Cell Type: Allium cepa, Assay Type: Chromosome aberrations, Assay Code: ALC+D, Dose Response: With dose response, Evaluation Type: Evaluation A (Pre-1980)): active; positive

SMILES: Oc1ccc2cc3ccc4cccc5ccc(c2c1)c3c45
- mutagenic call (Species/Cell Type: Chinese hamster lung (V79) cells, Assay Type: Forward gene mutation at the HPRT or ouabain locus, Assay Code: V79+/-*, Activation: With metabolic activation, Evaluation Type: Evaluation A (Pre-1980)): inactive; positive without activation, negative with activation
- call (Species/Cell Type: Nonhuman, Assay Code: CCGT, Evaluation Type: Evaluation A (Pre-1980)): no conclusion
- mutagenic call [6]: active; positive

SMILES: O=S(=O)(O)c1ccc(O)c(N=Nc2c(O)ccc3ccccc23)c1
- mutagenic call [3]: no conclusion

SMILES: Cc1nccc2c1[nH]c1ccccc12
- mutagenic call (Species/Cell Type: Human lymphocytes, Assay Type: Sister-chromatid exchange (SCE) in vitro, Assay Code: SCL+D, Dose Response: With dose response, Evaluation Type: Evaluation B (Post-1980)): active; positive
- mutagenic call [2]: active; positive
- mutagenic call [3]: no conclusion

SMILES: Nc1ccn([C@@H]2O[C@H](CO)[C@@H](O)C2O)c(=O)n1 (stereo not given in full)
- mutagenic call [7]: active; positive
- mutagenic call [1]: no conclusion
- mutagenic call (Species/Cell Type: Ehrlich ascites tumor (mouse) cells, Assay Type: Chromosome aberrations, DNA effects, host-mediated assay, Assay Code: HMH+, Evaluation Type: Evaluation A (Pre-1980)): active; positive
- mutagenic call (Species/Cell Type: Glycine max (soybean), Assay Type: Gene mutation, Assay Code: GLM-, Evaluation Type: Evaluation A (Pre-1980)): inactive; negative
- mutagenic call (Species/Cell Type: Human lymphocytes or leukocytes, Assay Type: Chromosome aberrations in vitro, Assay Code: CY7+, Evaluation Type: Evaluation A (Pre-1980)): active; positive
- mutagenic call (Species/Cell Type: Human lymphocytes, Assay Type: Sister-chromatid exchange (SCE) in vitro, Assay Code: SCL+, Evaluation Type: Evaluation B (Post-1980)): active; positive
- mutagenic call (Species/Cell Type: Human lymphocytes, Assay Type: Sister-chromatid exchange (SCE) in vitro, Assay Code: SCLT, Evaluation Type: Evaluation A (Pre-1980)): no conclusion
- mutagenic call [2]: active; positive
- mutagenic call (Species/Cell Type: Human, Assay Type: Sister-chromatid exchange (SCE) in vitro, Assay Code: SC1T, Evaluation Type: Evaluation A (Pre-1980)): no conclusion
- mutagenic call (Species/Cell Type: Mammalian polychromatic erythrocytes, Assay Type: Micronucleus test, chromosome aberrations, Assay Code: MNT+, Evaluation Type: Evaluation B (Post-1980)): active; positive
- mutagenic call (Species/Cell Type: Mouse (C3H/10T1/2) cells, Assay Type: Cell transformation, Assay Code: CTH+, Evaluation Type: Evaluation A (Pre-1980)): active; positive
- mutagenic call [8]: active; positive
- mutagenic call (Species/Cell Type: Nonhuman, Assay Type: Sister-chromatid exchange (SCE) in vivo, Assay Code: SC3T, Evaluation Type: Evaluation A (Pre-1980)): no conclusion
- mutagenic call [5]: active; positive
- mutagenic call (Species/Cell Type: Syrian hamster embryo (SHE) cells, Assay Type: Cell transformation, clonal assay, Assay Code: CTC+, Evaluation Type: Evaluation A (Pre-1980)): active; positive

SMILES: O=C(O)c1ccccc1[N+](=O)[O-]
- mutagenic call [4]: active; positive

SMILES: CN[C@@H]1[C@H](O[C@H]2[C@H](O[C@H]3[C@H](O)[C@@H](O)[C@H](N=C(N)N)[C@@H](O)[C@@H]3N=C(N)N)O[C@@H](C)[C@]2(O)CO)O[C@@H](CO)[C@H](O)[C@H]1O
- mutagenic call (Species/Cell Type: Vicia faba, Assay Type: Chromosome aberrations, Assay Code: VIC-, Evaluation Type: Evaluation A (Pre-1980)): inactive; negative

SMILES: COc1cc2c(c3oc4cccc(O)c4c(=O)c13)[C@@H]1C=CO[C@@H]1O2
- mutagenic call (Species/Cell Type: Bacillus subtilis (H17 vs M45), Assay Type: Rec-assay, spot test, DNA effects (bacterial DNA repair), Assay Code: REWT, Evaluation Type: Evaluation A (Pre-1980)): no conclusion
- mutagenic call (Species/Cell Type: Human diploid fibroblasts, Assay Type: Unscheduled DNA synthesis (UDS) in vitro, DNA effects, Assay Code: UDH+*, Activation: With metabolic activation, Evaluation Type: Evaluation A (Pre-1980)): active; positive
- mutagenic call (Species/Cell Type: Neurospora crassa, Assay Type: Forward gene mutation, Assay Code: NEF+, Evaluation Type: Evaluation A (Pre-1980)): active; positive
- mutagenic call (Species/Cell Type: Nonhuman, Assay Type: Chromosome aberrations in vitro, Assay Code: CY&+, Evaluation Type: Evaluation A (Pre-1980)): active; positive
- call [9]: active; positive
- mutagenic call (Species/Cell Type: Nonhuman, Assay Type: Sister-chromatid exchange (SCE) in vivo, Assay Code: SC3+D, Dose Response: With dose response, Evaluation Type: Evaluation B (Post-1980)): active; positive
- mutagenic call (Species/Cell Type: Saccharomyces cerevisiae, Assay Type: Mitotic recombination or gene conversion, Assay Code: YEH+*, Activation: With metabolic activation, Evaluation Type: Evaluation A (Pre-1980)): active; positive
- mutagenic call [4]: active; positive

SMILES: CC1CN1P(=O)(Cc1ccccc1)N1CC1C (stereo not given)
- mutagenic call [10]: active; positive

SMILES: O[C@@H]1C=Cc2c(ccc3cc4ccccc4cc23)[C@H]1O
- mutagenic call [7]: active; positive
- call (Species/Cell Type: Nonhuman, Assay Code: CCG+L, Evaluation Type: Evaluation A (Pre-1980)): active; positive
- mutagenic call [8]: active; positive
- mutagenic call [6]: active; positive

SMILES: O=P1(N2CC2)NC2CCCC3CCCC(N1)C32 (stereo not given)
- mutagenic call [10]: active; positive

SMILES: O.O.O.O.O.O.[Cl-].[Cl-].[Ni+2]
- mutagenic call (Species/Cell Type: Nonhuman, Assay Type: Sister-chromatid exchange (SCE) in vitro, Assay Code: SC2+, Evaluation Type: Evaluation B (Post-1980)): active; positive

SMILES: O[C@@H]1[C@H]2O[C@H]2c2cc3c(ccc4ccccc43)cc2[C@H]1O
- mutagenic call [7]: active; positive
- mutagenic call [4]: active; positive

SMILES: Oc1ccc2c3c(cccc13)CC2
- mutagenic call [3]: no conclusion

SMILES: O=[N+]([O-])O.O=[N+]([O-])O.[Cd+2]
- mutagenic call (Species/Cell Type: Nonhuman, Assay Type: Sister-chromatid exchange (SCE) in vitro, Assay Code: SC2-, Evaluation Type: Evaluation B (Post-1980)): inactive; negative

SMILES: NN
- mutagenic call [1]: no conclusion
- call [9]: active; positive
- mutagenic call [8]: active; positive
- mutagenic call (Species/Cell Type: Saccharomyces cerevisiae, Assay Type: Forward gene mutation, Assay Code: YEF+, Evaluation Type: Evaluation A (Pre-1980)): active; positive
- mutagenic call (Species/Cell Type: Vicia faba, Assay Type: Chromosome aberrations, Assay Code: VIC+, Evaluation Type: Evaluation A (Pre-1980)): active; positive

SMILES: CN(C)P(=O)(N(C)C)N(C)C
- mutagenic call [10]: active; positive
- mutagenic call (Species/Cell Type: Drosophila melanogaster, Sex: Male, Assay Type: Heritable translocation test, chromosome aberrations, Assay Code: DHT+, Evaluation Type: Evaluation A (Pre-1980)): active; positive
- mutagenic call (Species/Cell Type: Mammalian polychromatic erythrocytes, Assay Type: Micronucleus test, chromosome aberrations, Assay Code: MNT+, Evaluation Type: Evaluation A (Pre-1980)): active; positive
- mutagenic call (Species/Cell Type: Mouse, Sex: Male, Assay Type: Sperm morphology, Assay Code: SPI+, Evaluation Type: Evaluation A (Pre-1980)): active; positive
- call [9]: active; positive
- mutagenic call (Species/Cell Type: Nonhuman, Assay Type: Sister-chromatid exchange (SCE) in vitro, Assay Code: SC2+D*, Activation: With metabolic activation, Dose Response: With dose response, Evaluation Type: Evaluation B (Post-1980)): active; positive
- mutagenic call (Species/Cell Type: Rabbit, Sex: Male, Assay Type: Sperm morphology, Assay Code: SPR+, Evaluation Type: Evaluation A (Pre-1980)): active; positive
- mutagenic call (Species/Cell Type: Rodents, Sex: Male, Assay Type: Dominant lethal test, Assay Code: DLT+, Evaluation Type: Evaluation A (Pre-1980)): active; positive
- mutagenic call (Species/Cell Type: Tradescantia species, Assay Type: Gene mutation, Assay Code: TRM+D, Dose Response: With dose response, Evaluation Type: Evaluation A (Pre-1980)): active; positive
